# Reference: US9179694B2, “Method and composition for enhancing milk production and milk component concentrations” (PURINA ANIMAL NUTRITION LLC, priority 2003, dated 2015)
# Marks after values point to notes of the source that are not given here.
# Assay: 4% fat-corrected milk production in sorbitol feeding trials
# Format: in vivo, Holstein cows
# Excerpt: To convert a particular quantity (weight) of a milk sample to the quantity (weight) of Fat-Corrected Milk, based on a correction to a concentration of four weight percent fat, based on the total weight off the Fat-Corrected Milk, the following equation is employed: 4 wt % FCM=Original Milk Weight×(0.4+(0.15×% TFOM)) where: • the term 4 wt % FCM means the calculated weight of Fat-Corrected Milk, based on a correction to a concentration of four weight percent fat, based on the total weight of the Fat-Corrected Milk, • the term Original Milk Weight means the weight of the original milk sample that is being corrected to a four weight percent fat basis, and • % TFOM is the weight % total fat in the original milk sample, based on the total weight of the original milk sample. Each cow of each of the six different trials (Control Trial #1, Control Trial #2, Pre-Partum Trial #1, Pre-Partum Trial #2, Pre/Post Trial #1, and Pre/Post Trial #2) was milked three times daily and the weight of produced milk by each cow was recorded at each milking. The milk from each cow was sampled once per week (⅓ of the sample volume from each of the three milkings occurring on the weekly milk sampling day) and was analyzed for true protein, total fat, lactose, and total solids, as detailed in the property determination and characterization techniques presented above. Additionally, samples of blood were periodically obtained from each cow during the four trials (Control Trial 2, Pre-Partum Trial #2, Pre/Post Trial #1, and Pre/Post Trial #2) encompassed in Example Two and were analyzed for non-esterified fatty acid (NEFA) content as detailed in the property determination and characterization techniques presented above. No NEFA analysis was conducted on the cows employed in Control Trial #1 or Pre-Partum Trial #1 that are the subject of Example One. Example One includes Control Trial #1 and Pre-Partum Trial #1. Both primiparious cows and multiparious cows were included in Control Trial #1 and Pre-Partum Trial #1. Five primiparious cows and fifteen multiparious cows were included in Control Trial #1; likewise, five primiparious cows and fifteen multiparious cows were included in Pre-Partum Trial #1. All cows included in Control Trial #1 and Pre-Partum Trial #1 were Holsteins. Example Two includes Control Trial #2, Pre-Partum Trial #2, Pre/Post Trial #1, and Pre/Post Trial #2. Only multiparious, Holstein cows were included in Control Trial #2, Pre-Partum Trial #1, Pre/Post Trial #1, and Pre/Post Trial #2. Eighteen multiparious cows were included in both Control Trial #2 and Pre-Partum Trial #2, while sixteen multiparious cows were included in Pre/Post Trial #1 and seventeen multiparious cows were included in Pre/Post Trial #2.
compound,measurement,setting,value
OC[C@@H](O)[C@@H](O)[C@H](O)[C@@H](O)CO [sorbitol],Milk Production (4.0% fat basis),"Pre-Partum Trial #1 (75/0/0 g/day in wk −3..−1/+1..+4/+5..+8), multiparious cows, weeks +1 through +8",98.6 lbs/day
same,Milk Production (4.0% fat basis),"Pre-Partum Trial #1 (75/0/0 g/day in wk −3..−1/+1..+4/+5..+8), primiparious cows, weeks +1 through +8",79.3 lbs/day
same,4% fat-corrected milk production increase,"Pre-Partum Trial #1 (75 g/day wk −3..−1 only) versus Control Trial #1, multiparious cows, weeks +1 through +8",12.4%
same,increase in production of 4% fat-corrected milk,"Pre-Partum Trial #1 (75 g/day wk −3..−1 only) versus Control Trial #1, primiparious cows, weeks +1 through +8",7.6%
same,Milk Production (4.0% fat basis),"Pre-Partum Trial #2 (75/0/100 g/day in wk −3..−1/+1..+4/+5..+8), multiparious cows, week +1",71.1^a lbs/day
same,Milk Production (4.0% fat basis),"Pre-Partum Trial #2 (75/0/100 g/day in wk −3..−1/+1..+4/+5..+8), multiparious cows, week +2",100 lbs/day
same,Milk Production (4.0% fat basis),"Pre-Partum Trial #2 (75/0/100 g/day in wk −3..−1/+1..+4/+5..+8), multiparious cows, week +3",104 lbs/day
same,Milk Production (4.0% fat basis),"Pre-Partum Trial #2 (75/0/100 g/day in wk −3..−1/+1..+4/+5..+8), multiparious cows, week +4",101 lbs/day
same,Milk Production (4.0% fat basis),"Pre-Partum Trial #2 (75/0/100 g/day in wk −3..−1/+1..+4/+5..+8), multiparious cows, week +5",104^ab lbs/day
same,Milk Production (4.0% fat basis),"Pre-Partum Trial #2 (75/0/100 g/day in wk −3..−1/+1..+4/+5..+8), multiparious cows, week +6",102 lbs/day
same,Milk Production (4.0% fat basis),"Pre-Partum Trial #2 (75/0/100 g/day in wk −3..−1/+1..+4/+5..+8), multiparious cows, week +7",102 lbs/day
same,Milk Production (4.0% fat basis),"Pre-Partum Trial #2 (75/0/100 g/day in wk −3..−1/+1..+4/+5..+8), multiparious cows, week +8",99.5^ab lbs/day
same,Milk Production (4.0% fat basis),"Pre-Partum Trial #2 (75/0/100 g/day in wk −3..−1/+1..+4/+5..+8), multiparious cows, weeks +1 through +4",94.4 lbs/day
same,Milk Production (4.0% fat basis),"Pre-Partum Trial #2 (75/0/100 g/day in wk −3..−1/+1..+4/+5..+8), multiparious cows, weeks +1 through +8",98 lbs/day
same,Milk Production (4.0% fat basis),"Pre-Partum Trial #2 (75/0/100 g/day in wk −3..−1/+1..+4/+5..+8), multiparious cows, weeks +5 through +8",102 lbs/day
same,Milk Production (4.0% fat basis),"Pre/Post Trial #1 (150/125/100 g/day in wk −3..−1/+1..+4/+5..+8), multiparious cows, week +1",82.1^ab lbs/day
same,Milk Production (4.0% fat basis),"Pre/Post Trial #1 (150/125/100 g/day in wk −3..−1/+1..+4/+5..+8), multiparious cows, week +1, two-trial comparison with Control Trial #2 (Table 23)",82.4 lbs/day
same,Milk Production (4.0% fat basis),"Pre/Post Trial #1 (150/125/100 g/day in wk −3..−1/+1..+4/+5..+8), multiparious cows, week +2",100 lbs/day
same,Milk Production (4.0% fat basis),"Pre/Post Trial #1 (150/125/100 g/day in wk −3..−1/+1..+4/+5..+8), multiparious cows, week +2, two-trial comparison with Control Trial #2 (Table 23)",99.7 lbs/day
same,Milk Production (4.0% fat basis),"Pre/Post Trial #1 (150/125/100 g/day in wk −3..−1/+1..+4/+5..+8), multiparious cows, week +3",107 lbs/day
same,Milk Production (4.0% fat basis),"Pre/Post Trial #1 (150/125/100 g/day in wk −3..−1/+1..+4/+5..+8), multiparious cows, week +3, two-trial comparison with Control Trial #2 (Table 23)",107 lbs/day
same,Milk Production (4.0% fat basis),"Pre/Post Trial #1 (150/125/100 g/day in wk −3..−1/+1..+4/+5..+8), multiparious cows, week +4",109 lbs/day
same,Milk Production (4.0% fat basis),"Pre/Post Trial #1 (150/125/100 g/day in wk −3..−1/+1..+4/+5..+8), multiparious cows, week +4, two-trial comparison with Control Trial #2 (Table 23)",109 lbs/day
same,Milk Production (4.0% fat basis),"Pre/Post Trial #1 (150/125/100 g/day in wk −3..−1/+1..+4/+5..+8), multiparious cows, week +5",108^ab lbs/day
same,Milk Production (4.0% fat basis),"Pre/Post Trial #1 (150/125/100 g/day in wk −3..−1/+1..+4/+5..+8), multiparious cows, week +5, two-trial comparison with Control Trial #2 (Table 23)",108 lbs/day
same,Milk Production (4.0% fat basis),"Pre/Post Trial #1 (150/125/100 g/day in wk −3..−1/+1..+4/+5..+8), multiparious cows, week +6",109 lbs/day
same,Milk Production (4.0% fat basis),"Pre/Post Trial #1 (150/125/100 g/day in wk −3..−1/+1..+4/+5..+8), multiparious cows, week +6, two-trial comparison with Control Trial #2 (Table 23)",109 lbs/day
same,Milk Production (4.0% fat basis),"Pre/Post Trial #1 (150/125/100 g/day in wk −3..−1/+1..+4/+5..+8), multiparious cows, week +7",103 lbs/day
same,Milk Production (4.0% fat basis),"Pre/Post Trial #1 (150/125/100 g/day in wk −3..−1/+1..+4/+5..+8), multiparious cows, week +7, two-trial comparison with Control Trial #2 (Table 23)",103 lbs/day
same,Milk Production (4.0% fat basis),"Pre/Post Trial #1 (150/125/100 g/day in wk −3..−1/+1..+4/+5..+8), multiparious cows, week +8",108.7^b lbs/day
same,Milk Production (4.0% fat basis),"Pre/Post Trial #1 (150/125/100 g/day in wk −3..−1/+1..+4/+5..+8), multiparious cows, week +8, two-trial comparison with Control Trial #2 (Table 23)",109 lbs/day
same,Milk Production (4.0% fat basis),"Pre/Post Trial #1 (150/125/100 g/day in wk −3..−1/+1..+4/+5..+8), multiparious cows, weeks +1 through +4",99.5 lbs/day
same,Milk Production (4.0% fat basis),"Pre/Post Trial #1 (150/125/100 g/day in wk −3..−1/+1..+4/+5..+8), multiparious cows, weeks +1 through +4, two-trial comparison with Control Trial #2 (Table 23)",99.7 lbs/day
same,Milk Production (4.0% fat basis),"Pre/Post Trial #1 (150/125/100 g/day in wk −3..−1/+1..+4/+5..+8), multiparious cows, weeks +1 through +8",103 lbs/day
same,Milk Production (4.0% fat basis),"Pre/Post Trial #1 (150/125/100 g/day in wk −3..−1/+1..+4/+5..+8), multiparious cows, weeks +1 through +8, two-trial comparison with Control Trial #2 (Table 23)",103 lbs/day
same,Milk Production (4.0% fat basis),"Pre/Post Trial #1 (150/125/100 g/day in wk −3..−1/+1..+4/+5..+8), multiparious cows, weeks +5 through +8",107 lbs/day
same,Milk Production (4.0% fat basis),"Pre/Post Trial #1 (150/125/100 g/day in wk −3..−1/+1..+4/+5..+8), multiparious cows, weeks +5 through +8, two-trial comparison with Control Trial #2 (Table 23)",107 lbs/day
same,greater production of 4% fat-corrected milk,"Pre/Post Trial #1 (150/125/100 g/day) versus Control Trial #2, multiparious cows, week +8",13.2%
same,increase in production of 4% fat-corrected milk,"Pre/Post Trial #1 (150/125/100 g/day) versus Control Trial #2, multiparious cows, weeks +5 through +8 (Table 23)",8.1%
same,greater rate of 4% fat-corrected milk production,"Pre/Post Trial #1 (150/125/100 g/day) versus Pre/Post Trial #2 (75/75/100 g/day), multiparious cows, week +8",15.1%
same,Milk Production (4.0% fat basis),"Pre/Post Trial #2 (75/75/100 g/day in wk −3..−1/+1..+4/+5..+8), multiparious cows, week +1",88.6^b lbs/day
same,Milk Production (4.0% fat basis),"Pre/Post Trial #2 (75/75/100 g/day in wk −3..−1/+1..+4/+5..+8), multiparious cows, week +2",103 lbs/day
same,Milk Production (4.0% fat basis),"Pre/Post Trial #2 (75/75/100 g/day in wk −3..−1/+1..+4/+5..+8), multiparious cows, week +3",106 lbs/day
same,Milk Production (4.0% fat basis),"Pre/Post Trial #2 (75/75/100 g/day in wk −3..−1/+1..+4/+5..+8), multiparious cows, week +4",105 lbs/day
same,Milk Production (4.0% fat basis),"Pre/Post Trial #2 (75/75/100 g/day in wk −3..−1/+1..+4/+5..+8), multiparious cows, week +5",111^b lbs/day
same,Milk Production (4.0% fat basis),"Pre/Post Trial #2 (75/75/100 g/day in wk −3..−1/+1..+4/+5..+8), multiparious cows, week +6",104 lbs/day
same,Milk Production (4.0% fat basis),"Pre/Post Trial #2 (75/75/100 g/day in wk −3..−1/+1..+4/+5..+8), multiparious cows, week +7",101 lbs/day
same,Milk Production (4.0% fat basis),"Pre/Post Trial #2 (75/75/100 g/day in wk −3..−1/+1..+4/+5..+8), multiparious cows, week +8",94.4^a lbs/day
same,Milk Production (4.0% fat basis),"Pre/Post Trial #2 (75/75/100 g/day in wk −3..−1/+1..+4/+5..+8), multiparious cows, weeks +1 through +4",100.6 lbs/day
same,Milk Production (4.0% fat basis),"Pre/Post Trial #2 (75/75/100 g/day in wk −3..−1/+1..+4/+5..+8), multiparious cows, weeks +1 through +8",101 lbs/day
same,Milk Production (4.0% fat basis),"Pre/Post Trial #2 (75/75/100 g/day in wk −3..−1/+1..+4/+5..+8), multiparious cows, weeks +5 through +8",102 lbs/day
same,greater production of 4% fat-corrected milk,"Pre/Post Trial #2 (75/75/100 g/day) versus Control Trial #2, multiparious cows, week +5",12.1%
same,greater rate of 4% fat-corrected milk production,"Pre/Post Trial #2 (75/75/100 g/day) versus Pre-Partum Trial #2 (75/0/100 g/day), multiparious cows, week +1",24.6%
